According to patent publication US7635693B2, “Methods for preventing and treating cancer using N-thiolated β-lactam compounds and analogs thereof” (University of South Florida, priority 2002, dated 2009):
Several values for one entry are separate records, joined by “and”; a condition that tells them apart may be missing. Equal entries are not always repeated. Where two headings read alike, the source gives them in different places.

Legend:
[1] = test system: caspase-9; details: Jurkat T cells
Protocol: (§1) J. Biol Chem 276:13322-30 with some modifications. Briefly, a prepared protein extract (20 μg) is incubated in a buffer containing 50 mM Tris/pH 8.0 along with each respective caspase substrate at 20 μM in a 96 well plate. The reaction mixture is incubated at 37° C. for 2 h. After incubation, the liberated fluorescent AMC or AFC groups are measured by a Wallac Victor 1420 Multilabel counter (Turku, Finland) with 355/460 […] and 405/535 nm filters, respectively.

[2] = test system: caspase-8; details: Jurkat T cells; for increase of caspase-8 levels over untreated cells: 8 hours
Protocol: as §1

[3] = test system: PARP; details: YT cells
Protocol: Human Jurkat T cells and human prostate cancer LNCaP cells were cultured in RPMI 1640 medium, supplemented with 10% fetal bovine serum, 100 units/ml penicillin, and 100 μg/ml streptomycin. Human YT cells were cultured in RPMI 1640 medium supplemented with 1 mM MEM sodium pyruvate solution, 0.1 mM MEM non-essential amino acids solution, 10% fetal bovine serum, 100 units/ml penicillin, and 100 μg/ml streptomycin. All cell lines were maintained at 37° C. in a humidified incubator with an atmosphere of 5% CO2. […] Briefly, cells were harvested, washed with PBS and homogenized in a lysis buffer (50 mM Tris-HCl, pH 8.0, 5 mM EDTA, 150 mM NaCl, 0.5% NP-40, 0.5 mM phenylmethylsulfonyl fluoride, and 0.5 mM dithiothreitol) for 30 min at 4° C. Afterwards, the lysates were centrifuged at 12000×g for 15 min at 4° C. and the supernatants collected as whole-cell extracts. Equal amounts of protein extract (60 μg) were resolved by SDS-polyacrylamide gel electrophoresis and transferred to a nitrocellulose membrane (Schleicher & Schuell, Keene, N. H.) using a Semi-Dry Transfer System (Bio-Rad, Hercules, Calif.). The enhanced chemiluminescence Western blot analysis was then performed using specific antibodies to the proteins of interest.

[4] = test system: Jurkat T cells; assay type: cell-based, human; details: for loss of membrane permeability (trypan blue incorporation): 8 hours
Protocol: The trypan blue exclusion assay was performed by injecting 10 μl of cell suspension containing 0.2% trypan blue dye into a hemoicytometer and counting. Numbers of cells that absorbed the dye and those that excluded the dye are counted, from which the percentage of non-viable cell number to total cell number is calculated.

[5] = test system: caspase-3; details: 50 μM, up to 48 hours
Protocol: (§2) (FIG. 19A) MTT assay. (FIG. 19B) Cell-free caspase-9 activity assay. A protein extract (20 μg) is incubated with 20 μM Ac-LEHD-AFC (the specific caspase-9 substrate) in a 96-well plate at 37° C. for 2 h. After incubation, the liberated florescent AFC groups are measured by Wallac Victor 1420 Multilabel counter with 405/535 nm filters. […] Both intact and active forms of caspase-3 are indicated. […] Both detached and attached populations of Va-13 or WI-38 cells are collected, and used for nuclear staining assay with DNA staining dye Hoechst 33342.

[6] = test system: caspase-9; details: 50 μM, up to 48 hours
Protocol: as §2

[7] = test system: NK cells (YT line); details: YT cells, 30 μM, 24 h
Protocol: The trypan blue dye exclusion assay was performed by mixing 20 μl of cell suspension with 20 μl of 0.4% trypan blue dye before injecting into a hemocytometer and counting. The number of cells that absorbed the dye and those that exclude the dye were counted, from which the percentage of nonviable cell number to total cell number was calculated.

[8] = test system: VA-13 cells; details: detached VA-13 cells, 50 μM
Protocol: as §2
To assay nuclear morphology, both the detached or remaining attached solid tumor cells were washed with PBS, fixed with 70% ethanol for 1 hour, and stained with Hoechst 33342 (50 μM) for 30 minutes. The nuclear morphology of cells was visualized by a fluorescence microscope.

[9] = test system: MCF-7 cells; assay: MTT assay, MCF-7; assay type: cell-based, human; details: MCF-7, 50 μM, 24 hours
Protocol: MCF-7, MDA-MB-231, PC-3 and PCI-13 cells were grown to 50% confluency in a 24 well plate. […] A stock 5 mg/ml of MTT in serum-free media was then added to the cell cultures at a final concentration of 1 mg/ml, followed by a 3 hour incubation at 37° C. After cells crystallized, the media was removed and DMSO added to dissolve the metabolized MTT product. The absorbance was then measured on a Wallac Victor 1420 Multilabel counter at […].

[10] = test system: BID; details: Jurkat T cells, 50 μM
Protocol: Human Jurkat T cells were cultured in RPMI 1640, supplemented with 10% fetal calf serum, 100 units/ml of penicillin and 100 μg/ml of streptomycin. Human breast cancer MCF-7 and MDA-MB-231 cells, human prostate cancer PC-3 cells, and human head-and-neck cancer PCI-13 cells were grown in Dulbecco's modified Eagle's medium containing 10% fetal calf serum, penicillin and streptomycin. All the cell lines were maintained in a 5% CO2 atmosphere at 37° C. A whole cell extract was prepared as described previously (An et al., 1998). Briefly, cells are harvested, washed with PBS and homogenized in a lysis buffer (50 mM Tris-HCl, pH 8.0, 5 mM EDTA, 150 mM NaCl, 0.5% NP-40, 0.5 mM PMSF, and 0.5 mM dithiothreitol) for 30 min at 4° C. After that, the lysates are centrifuged at 14,000×g for 30 min and the supernatants are collected as whole cell extracts. Equal amounts of protein extract (50 μg) are resolved by SDS-polyacrylamide gel electrophoresis and then transferred to a nitrocellulose membrane (Schleicher & Schuell, Keene, N H) using a Semi-Dry Transfer System (BIO-RAD; Hercules, Calif.). The enhanced chemiluminescence (ECL) Western Blot analysis is then performed using specific antibodies to the proteins of interest.

[11] = test system: caspase-3; details: LNCaP cells, 48 h, 50 μM
Protocol: To measure cell-free caspase-3 activity, whole cell extracts (20-30 μg) from untreated or treated LNCaP cells were incubated with 20 μM of the fluorogenic substrate caspase-3/caspase-7 (Ac-DEVD-AMC) for 30 min at 37° C. in 100 μl of assay buffer (50 mM Tris, pH 8.0).

For COC1C(=O)N(SC)C1c1ccccc1Cl (racemic) [lactam 1], the “time at which caspase-9 activity is first detected” value ([1]; 50 μM) was 4 h, the caspase-9 activity ([1]; 8 hours, higher concentrations of lactam 1) was “Higher levels” and the “time at which caspase-8 activity was detected” value ([2]; 50 μM) was 2 h. The “time of maximal caspase-8 activity” value ([2]; 50 μM) was 6 h, the “increase of caspase-8 levels over untreated cells” value ([2]; 50 μM) was 5 fold and the “increase of caspase-8 levels over untreated cells” value ([2]; 30 to 40 μM) was 2 fold. The PARP cleavage ([3]; 30 μM, 3, 6, or 24 h) was “no PARP cleavage was observed”, the PARP cleavage ([3]; at even 50 μM, 24 h) was “no PARP cleavage was detectable” and the “cell death (trypan blue)” value ([4]; 30 μM, 24 h) was 42%. The “cell death (trypan blue)” value ([4]; 50 μM, 3 h) was 11%, the “non-viable cell population (trypan blue)” value ([4]; 50 μM, 4 hours) was 20% and the trypan blue-positive cells ([4]; 50 μM, 6 h) was 20%. The “non-viable cell population / cell death (trypan blue)” value ([4]; 50 μM, 24 h) was 60% and ~52% and ~50%, the “loss of membrane permeability (trypan blue incorporation)” value (“loss of membrane permeability” below) ([4]; 50 μM) was about 30% and the “loss of membrane permeability” value ([4]; 60 μM) was about 80%. The “loss of membrane permeability” value ([4]; 20-40 μM) was about 10%, the “processing and activation of caspase-3” value ([5]; VA-13 cells) was “detected only in the transformed, but not normal, human cells” and the “processing and activation of caspase-3” value ([5]; WI-38 cells) was “detected only in the transformed, but not normal, human cells”. The “cell-free caspase-9 activity” value ([6]; VA-13 cells) was “activated cell-free caspase-9 activity”, the “cell-free caspase-9 activity” value ([6]; WI-38 cells) was “no caspase-9 activation was detected” and the “cell death (trypan blue)” value [7] was 9%. For the same compound, the “nuclear morphology (Hoechst 33342)” value [8] was “apoptotic nuclear condensation and fragmentation”, the “decrease of cellular viability (MTT)” value [9] was 80% and the “time at which 15-kDa fragment of Bid was first observed” value [10] was 2 h. For the same compound, the “time of peak of 15-kDa fragment of Bid” value [10] was 6 h and the “increase in caspase-3 activity over control” value [11] was 2.5 fold.
